Assay results published in ChEMBL document CHEMBL1140860, “Synthesis and evaluation of dihydroartemisinin and dihydroartemisitene acetal dimers showing anticancer and antiprotozoal activity” (Bioorg Med Chem, 2009).

Experiments:
[1] = Growth inhibition of human […] cells after 48 hrs by sulforhodamine B assay; assay type: functional
[2] = tested on: MCF7; experiment: Growth inhibition of human MCF7 cells after 48 hrs by sulforhodamine B assay; assay type: functional; details: MCF7, 48 h
[3] = tested on: UO-31; experiment: Growth inhibition of human UO31 cells after 48 hrs by sulforhodamine B assay; assay type: functional; details: UO-31, 48 h
[4] = tested on: NCI/ADR-RES; experiment: Growth inhibition of human NCI/ADR-RES cells after 48 hrs by sulforhodamine B assay; assay type: functional
[5] = Selectivity index, ratio of TC50 for african green monkey (Cercopithecus aethiops) Vero cells to IC50 for chloroquine-sensitive Plasmodium falciparum D6; assay type: toxicity, cell-based
[6] = tested on: A549; experiment: Growth inhibition of human A549 cells after 48 hrs by sulforhodamine B assay; assay type: functional; details: A549, 48 h
[7] = tested on: K562; experiment: Growth inhibition of human K562 cells after 48 hrs by sulforhodamine B assay; assay type: functional; details: K562, 48 h
[8] = tested on: OVCAR-5; experiment: Growth inhibition of human OVCAR5 cells after 48 hrs by sulforhodamine B assay; assay type: functional; details: OVCAR-5, 48 h
[9] = tested on: HOP-92; experiment: Growth inhibition of human HOP92 cells after 48 hrs by sulforhodamine B assay; assay type: functional; details: HOP-92, 48 h
[10] = tested on: KM12; experiment: Growth inhibition of human KM12 cells after 48 hrs by sulforhodamine B assay; assay type: functional; details: KM12, 48 h
[11] = tested on: 786-0; experiment: Growth inhibition of human 786-0 cells after 48 hrs by sulforhodamine B assay; assay type: functional; details: 786-0, 48 h
[12] = tested on: NCI-H322M; experiment: Growth inhibition of human NCI-H322M cells after 48 hrs by sulforhodamine B assay; assay type: functional
[13] = tested on: MDA-MB-435; experiment: Growth inhibition of human MDA-MB-435 cells after 48 hrs by sulforhodamine B assay; assay type: functional; details: MDA-MB-435, 48 h
[14] = tested on: HCT-15; experiment: Growth inhibition of human HCT15 cells after 48 hrs by sulforhodamine B assay; assay type: functional; details: HCT-15, 48 h
[15] = tested on: HOP-62; experiment: Growth inhibition of human HOP62 cells after 48 hrs by sulforhodamine B assay; assay type: functional; details: HOP-62, 48 h
[16] = tested on: M14; experiment: Growth inhibition of human M14 cells after 48 hrs by sulforhodamine B assay; assay type: functional; details: M14, 48 h
[17] = tested on: NCI-H23; experiment: Growth inhibition of human NCI-H23 cells after 48 hrs by sulforhodamine B assay; assay type: functional; details: NCI-H23, 48 h
[18] = Cytotoxicity against african green monkey Vero cells after 48 hrs by neutral red assay; assay type: cell-based; details: chlorocebus sabaeus, read-out: TC50
[19] = tested on: HCC 2998; experiment: Growth inhibition of human HCC2998 cells after 48 hrs by sulforhodamine B assay; assay type: functional; details: HCC 2998, 48 h
[20] = tested on: SNB-19; experiment: Growth inhibition of human SNB19 cells after 48 hrs by sulforhodamine B assay; assay type: functional; details: SNB-19, 48 h
[21] = tested on: NCI-H522; experiment: Growth inhibition of human NCI-H522 cells after 48 hrs by sulforhodamine B assay; assay type: functional; details: NCI-H522, 48 h
[22] = Growth inhibition of human Hs 578T cells after 48 hrs by sulforhodamine B assay; assay type: functional
[23] = tested on: HT-29; experiment: Growth inhibition of human HT-29 cells after 48 hrs by sulforhodamine B assay; assay type: functional; details: HT-29, 48 h
[24] = tested on: LOX IMVI; experiment: Growth inhibition of human LOXIMVI cells after 48 hrs by sulforhodamine B assay; assay type: functional
[25] = tested on: ACHN; experiment: Growth inhibition of human ACHN cells after 48 hrs by sulforhodamine B assay; assay type: functional
[26] = tested on: EKVX; experiment: Growth inhibition of human EKVX cells after 48 hrs by sulforhodamine B assay; assay type: functional
[27] = tested on: OVCAR-8; experiment: Growth inhibition of human OVCAR8 cells after 48 hrs by sulforhodamine B assay; assay type: functional; details: OVCAR-8, 48 h
[28] = tested on: OVCAR-3; experiment: Growth inhibition of human OVCAR-3 cells after 48 hrs by sulforhodamine B assay; assay type: functional; details: OVCAR-3, 48 h
[29] = tested on: CCRF-CEM; experiment: Growth inhibition of human CCRF-CEM cells after 48 hrs by sulforhodamine B assay; assay type: functional
[30] = tested on: HCT-116; experiment: Growth inhibition of human HCT116 cells after 48 hrs by sulforhodamine B assay; assay type: functional; details: HCT-116, 48 h
[31] = tested on: Plasmodium falciparum; experiment: Antimalarial activity after 72 hrs against chloroquine-resistant Plasmodium falciparum W2 infected erythrocytes by LDH assay; assay type: functional, organism-based; details: W2, 72 h
[32] = tested on: PC-3; experiment: Growth inhibition of human PC3 cells after 48 hrs by sulforhodamine B assay; assay type: functional; details: PC-3, 48 h
[33] = tested on: IGROV-1; experiment: Growth inhibition of human IGROV1 cells after 48 hrs by sulforhodamine B assay; assay type: functional; details: IGROV-1, 48 h
[34] = tested on: SNB-75; experiment: Growth inhibition of human SNB75 cells after 48 hrs by sulforhodamine B assay; assay type: functional; details: SNB-75, 48 h
[35] = tested on: A498; experiment: Growth inhibition of human A498 cells after 48 hrs by sulforhodamine B assay; assay type: functional; details: A498, 48 h
[36] = tested on: BT-549; experiment: Growth inhibition of human BT549 cells after 48 hrs by sulforhodamine B assay; assay type: functional; details: BT-549, 48 h
[37] = tested on: UACC-62; experiment: Growth inhibition of human UACC62 cells after 48 hrs by sulforhodamine B assay; assay type: functional; details: UACC-62, 48 h
[38] = tested on: T47D; experiment: Growth inhibition of human T47D cells after 48 hrs by sulforhodamine B assay; assay type: functional
[39] = tested on: COLO 205; experiment: Growth inhibition of human COLO205 cells after 48 hrs by sulforhodamine B assay; assay type: functional; details: COLO 205, 48 h
[40] = tested on: SK-MEL-28; experiment: Growth inhibition of human SK-MEL-28 cells after 48 hrs by sulforhodamine B assay; assay type: functional; details: SK-MEL-28, 48 h
[41] = tested on: HL-60; experiment: Growth inhibition of human HL-60(TB) cells after 48 hrs by sulforhodamine B assay; assay type: functional; details: HL-60, 48 h
[42] = tested on: MDA-MB-231; experiment: Growth inhibition of human MDA-MB-231 cells after 48 hrs by sulforhodamine B assay; assay type: functional; details: MDA-MB-231, 48 h
[43] = tested on: NCI-H226; experiment: Growth inhibition of human NCI-H226 cells after 48 hrs by sulforhodamine B assay; assay type: functional; details: NCI-H226, 48 h
[44] = tested on: CAKI-1; experiment: Growth inhibition of human Caki1 cells after 48 hrs by sulforhodamine B assay; assay type: functional; details: CAKI-1, 48 h
[45] = tested on: Plasmodium falciparum; experiment: Antimalarial activity after 72 hrs against chloroquine-sensitive Plasmodium falciparum D6 infected in erythrocytes by LDH assay; assay type: functional, organism-based; details: D6, 72 h
[46] = tested on: SN12C; experiment: Growth inhibition of human SN12C cells after 48 hrs by sulforhodamine B assay; assay type: functional
[47] = tested on: SR; experiment: Growth inhibition of human SR cells after 48 hrs by sulforhodamine B assay; assay type: functional
[48] = tested on: SK-MEL-5; experiment: Growth inhibition of human SK-MEL-5 cells after 48 hrs by sulforhodamine B assay; assay type: functional; details: SK-MEL-5, 48 h

Structure (SMILES): C[C@H]1[C@@H](OCC(O)CO[C@@H]2C[C@@H]3CC[C@@H](C)[C@@H]4CC[C@@]5(C)OO[C@@]34[C@H](O2)O5)O[C@@H]2O[C@@]3(C)CC[C@H]4[C@H](C)CC[C@@H]1[C@@]24OO3 (stereo partly drawn)
- GI50 [1]: 0.024 µM
- GI50 [2]: 0.095 µM
- GI50 [3]: 0.108 µM
- GI50 [4]: 0.34 µM
- selectivity ratio [5]: > 23800
- GI50 [6]: 0.505 µM
- GI50 [7]: 0.06 µM
- GI50 [8]: 17.7 µM
- GI50 [9]: 0.384 µM
- GI50 [10]: 0.166 µM
- GI50 [11]: 0.417 µM
- GI50 [12]: 62.5 µM
- GI50 [13]: 0.301 µM
- GI50 [14]: 0.027 µM
- GI50 [15]: 13.3 µM
- GI50 [16]: 14.9 µM
- GI50 [17]: 0.135 µM
- CC50 at 48 h [18]: > 7620 µM
- GI50 [19]: 7.02 µM
- GI50 [20]: 27.6 µM
- GI50 [21]: 0.521 µM
- GI50 [22]: 12.5 µM
- GI50 [23]: 0.268 µM
- GI50 [24]: 0.11 µM
- GI50 [25]: 0.248 µM
- GI50 [26]: 0.307 µM
- GI50 [27]: 0.252 µM
- GI50 [28]: 0.171 µM
- GI50 [29]: 0.104 µM
- GI50 [30]: 0.049 µM
- IC50 [31]: 1.2 µM
- GI50 [32]: 0.035 µM
- GI50 [33]: 13.1 µM
- GI50 [34]: 8.25 µM
- GI50 [35]: 0.686 µM
- GI50 [36]: 0.408 µM
- GI50 [37]: 0.296 µM
- GI50 [38]: 0.027 µM
- GI50 [39]: 0.04 µM
- GI50 [40]: 9.39 µM
- GI50 [41]: 0.062 µM
- GI50 [42]: 45.8 µM
- GI50 [43]: 61.7 µM
- GI50 [44]: 0.256 µM
- IC50 [45]: 0.3 µM
- GI50 [46]: 0.263 µM
- GI50 [47]: 0.178 µM
- GI50 [48]: 0.095 µM
